Experiment [1] has as its system P. aeruginosa ATCC 10148. It is filed as cell-based, Pseudomonas aeruginosa. The following applies: range over 3–9 independent experiments. Here is the method:
(§1) Bacterial strains used in this study were: E. coli ATCC 9723H, Pseudomonas aeruginosa ATCC 10148, Staphylococcus aureus ATCC 6538P (penicillin resistant), Streptococcus pyogenes (hospital isolate, strain unknown), Mycobacterium smegmatis MC^2155, N. gonorrhoeae ATCC 700825 (streptomycin resistant), and Salmonella enterica subsp. enterica serovar Typhimurium SL1344 (streptomycin resistant). E. coli, P. aeruginosa, S. aureus, M. smegmatis, and S. enterica were cultured aerobically at 37°C in Mueller Hinton broth (MHB) (Sigma-Aldrich, MO, United States) and on nonselective Mueller Hinton agar (MHA) plates. S. pyogenes was cultured in 5% carbon dioxide at 37°C in MHB supplemented with 5% lysed horse blood (Quad Five, MT, United States) (MHB + 5% HB) and on nonselective MHA plates supplemented with 5% defibrinated sheep blood (Quad Five, MT, United States) (MHA + 5% SB). N. gonorrhoeae was cultured in 5% carbon dioxide at 37°C in gonococcal (GC) chocolate broth medium and on nonselective GC agar plates [GC medium base (BD Difco, MD, United States) supplemented with 1% BBL™ hemoglobin (BD Biosciences, MD, United States) and 1% IsoVitaleX (BD Biosciences, MD, United States)]. Prior to antimicrobial susceptibility assays (as described below), N. gonorrhoeae cultures were subcultured on nonselective GC agar plates (as described above), to ensure bacterial viability. All bacterial stocks were stored in 20% glycerol at –80°C.
(§2) Bacterial suspensions were prepared by transferring bacterial colonies into MHB and resuspending using a vortex mixer to ensure complete suspension of any bacterial aggregates. Turbidity of the colony suspensions was adjusted spectrophotometrically to the required optical densities to achieve a turbidity equivalent to that of a 0.5 McFarland standard (1–2 × 10^8 CFU/mL) followed by dilution in MHB to achieve the standardized microbial inoculum of approximately 5 × 10^5 CFU/mL. Total viable counts (TVC) were routinely performed on all inoculum suspensions to ensure correct bacterial cell densities. The standardized bacterial suspensions were then incubated with two-fold serial dilutions of each peptide (dissolved in 11 μL of ultrapure sterile water; final peptide concentration range of 256 μg/mL–0.5 μg/mL) in Greiner polypropylene round bottom 96-well microtiter plates (Sigma-Aldrich, MO, United States). Each peptide was tested once per experiment, with a range of 3–9 independent experiments performed per peptide. Negative growth/sterility control wells contained bacterial growth media (100 μL) and the peptide solvent (11 μL of ultrapure sterile water). Positive growth control wells contained the standardized number of bacterial cells (100 μL of ∼ 5.0 × 10^5 CFU/mL) and peptide solvent (11 μL of ultrapure sterile water). Plates were incubated at 37°C for 16–24 h and MICs were determined using the unaided eye to identify the lowest concentration of AMP that inhibited visible growth of the tested bacterial species. If the sterility control well was turbid, the test was not considered valid. MBCs were determined by plating the entire content of the wells containing the peptide/bacteria mixture representing the MIC and the entire contents of the preceding wells containing two-fold and four-fold more concentrated AMP dilutions onto nonselective agar plates.

Experiment [2] has as its system N. gonorrhoeae ATCC 700825. Format: cell-based, Neisseria gonorrhoeae. The following applies: 3-h incubation 37°C 5% CO2, TVCs versus positive growth control, all of three to six independent experiments. Here is the method:
as §1
The potential antimicrobial activity of the T. pallidum peptides against N. gonorrhoeae was determined using a modified agar dilution method. In this assay, N. gonorrhoeae colonies from GC chocolate agar plates were resuspended in MHB and the turbidity of the suspension was adjusted, as described above, to achieve the standardized microbial inoculum of approximately 5 × 10^5 CFU/mL. A two-fold serial dilution of the peptides (11 μL in sterile ultrapure water) was then prepared in wells 1–10 of a 96-well sterile polypropylene plate to obtain a dilution series corresponding to 10 times the required testing concentrations (2,560, 1,280, 640, 320, 160, 80, 40, 20, 10, 5 μg/mL). The bacterial suspension (100 μL) was dispensed into the wells containing the peptides. A negative growth/sterility control (well 12) contained bacterial growth media (100 μL) and the peptide solvent (11 μL of ultrapure sterile water). A positive growth control (well 11) contained the standardized number of bacterial cells (100 μL of ∼ 5.0 × 10^5 CFU/mL) and peptide solvent (11 μL of ultrapure sterile water). The 96-well plate was then incubated at 37°C in an atmosphere of 5% CO2 for 3 h to allow for peptide binding and antimicrobial activity. After the incubation period, an aliquot (20 μL) from wells 1–12 was removed and spotted onto the surface of a GC chocolate agar plate. N. gonorrhoeae spotted plates and TVC plates were incubated at 37°C in an atmosphere of 5% CO2 for 18–24 h. […] To determine the bactericidal activity of peptides, total viable counts (TVCs) were also prepared on GC chocolate agar plates for the 3 h-incubated peptide/bacteria mixtures. These counts were compared with TVCs from the corresponding positive growth wells to give the percentage of bacteria killed by each of the peptides following the 3-h incubation.

The test system of experiment [3] is S. enterica SL1344. It is filed as cell-based, Salmonella enterica subsp. enterica serovar Typhimurium. The following applies: range over 3–9 independent experiments. The procedure:
as §1
(§3) Bacterial suspensions were prepared by transferring bacterial colonies into MHB and resuspending using a vortex mixer to ensure complete suspension of any bacterial aggregates. Turbidity of the colony suspensions was adjusted spectrophotometrically to the required optical densities to achieve a turbidity equivalent to that of a 0.5 McFarland standard (1–2 × 10^8 CFU/mL) followed by dilution in MHB to achieve the standardized microbial inoculum of approximately 5 × 10^5 CFU/mL. Total viable counts (TVC) were routinely performed on all inoculum suspensions to ensure correct bacterial cell densities. […] Plates were incubated at 37°C for 16–24 h and MICs were determined using the unaided eye to identify the lowest concentration of AMP that inhibited visible growth of the tested bacterial species. […] MBCs were determined by plating the entire content of the wells containing the peptide/bacteria mixture representing the MIC and the entire contents of the preceding wells containing two-fold and four-fold more concentrated AMP dilutions onto nonselective agar plates.

Experiment [4] concerns M. smegmatis MC^2155. Format: cell-based, Mycobacterium smegmatis. The following applies: range over 3–9 independent experiments. Here is the method:
as §1, §2

The test system of experiment [5] is S. pyogenes Unknown strain; Clinical Isolate. It is filed as cell-based, Streptococcus pyogenes. The following applies: range over 3–9 independent experiments. Here is the method: as §1, §2
The subject of experiment [6] is E. coli ATCC 9723H. It is filed as cell-based. The following applies: range over 3–9 independent experiments. Here is the method: as §1, §2
Experiment [7] concerns S. aureus ATCC 6538P. It is filed as cell-based, Staphylococcus aureus. The following applies: range over 3–9 independent experiments. The procedure:
as §1, §3

[8] abbreviates: broth microdilution in MHB, ~5 × 10^5 CFU/mL, peptide 256–0.5 μg/mL two-fold dilutions, 37°C 16–24 h, visible growth by unaided eye.
[9] abbreviates: wells at MIC, two-fold and four-fold higher plated on nonselective agar, 24 h 37°C.

Molecules are shown by their SMILES. Where two headings read alike, the source gives them in different places.

For the compound `CC[C@H](C)[C@H](NC(=O)[C@H](CCCCN)NC(=O)[C@H](CCC(=O)O)NC(=O)[C@H](CCCCN)NC(=O)[C@H](CO)NC(=O)[C@H](CCCCN)NC(=O)[C@H](CCCNC(=N)N)NC(=O)[C@H](Cc1ccccc1)NC(=O)[C@H](Cc1ccccc1)NC(=O)[C@H](CC(=O)O)NC(=O)CNC(=O)[C@H](CC(C)C)NC(=O)[C@@H](N)CC(C)C)C(=O)NCC(=O)N[C@@H](CCCCN)C(=O)N[C@@H](CCC(=O)O)C(=O)N[C@@H](Cc1ccccc1)C(=O)N[C@@H](CCCCN)C(=O)N[C@@H](CCCNC(=N)N)C(=O)N[C@H](C(=O)N[C@H](C(=O)N[C@@H](CCC(N)=O)C(=O)N[C@@H](CCCNC(=N)N)C(=O)N[C@H](C(=O)N[C@@H](CCCCN)C(=O)N[C@@H](CC(=O)O)C(=O)N[C@@H](Cc1ccccc1)C(=O)N[C@@H](CC(C)C)C(=O)N[C@@H](CCCNC(=N)N)C(=O)N[C@@H](CC(N)=O)C(=O)N[C@@H](CC(C)C)C(=O)N[C@H](C(=O)N1CCC[C@H]1C(=O)N[C@@H](CCCNC(=N)N)C(=O)N[C@H](C(=O)N[C@@H](CCC(=O)O)C(=O)N[C@@H](CO)C(=O)O)[C@@H](C)O)C(C)C)[C@@H](C)CC)C(C)C)[C@@H](C)CC` [LL-37], the MIC lay in the range of 3.6 to 14.2 µM in experiment [1] (setting [8]); 1.8 to 28.5 µM in experiment [3] (setting [8]); 0.45 to 1.8 µM in experiment [4] (setting [8]); 28.5 to 57.0 µM in experiment [5] (broth microdilution, cultured in MHB + 5% lysed horse blood, 5% carbon dioxide, ~5 × 10^5 CFU/mL, peptide 256–0.5 μg/mL, 37°C 16–24 h, visible growth); 1.8 to 7.1 µM in experiment [6] (setting [8]); 7.1 to 28.5 µM in experiment [7] (penicillin resistant strain, broth microdilution in MHB, ~5 × 10^5 CFU/mL, peptide 256–0.5 μg/mL two-fold dilutions, 37°C 16–24 h, visible growth by unaided eye). Besides, the MBC lay within 3.6 to 14.2 µM in experiment [1] (setting [9]); 1.8 to 28.5 µM in experiment [3] (setting [9]); 0.45 to 1.8 µM in experiment [4] (setting [9]); 28.5 to 57.0 µM in experiment [5] (setting [9]); 1.8 to 7.1 µM in experiment [6] (setting [9]); 7.1 to 57.0 µM in experiment [7] (setting [9]). The “N. gonorrhoeae killing (%)” value in experiment [2] (peptide 32 μg/mL), in experiment [2] (peptide 64 μg/mL), in experiment [2] (peptide 128 μg/mL) and in experiment [2] (peptide 256 μg/mL) was 100% throughout.

As a reminder, the MIC is the lowest concentration that inhibits growth of the organism. By MBC is commonly meant the lowest tested concentration that kills the bacteria rather than only halting them. Low values mean greater bactericidal potency, high ones weaker bactericidal potency.

(Values after paper PMC9200625, “Identification and Functional Characterization of Peptides With Antimicrobial Activity From the Syphilis Spirochete, Treponema pallidum” (Frontiers in Microbiology, 2022).)
